{"source": "patent US6458974B1", "about": "“Synthesis of β-lapachone and its intermediates” (Cyclis Pharmaceuticals, Inc., priority 2001, dated 2002)", "origin": "cited, not measured here", "key": {"[1]": {"system": "normal fresh or proliferating human PBMC"}, "human cancer cell lines": {"system": "human cancer cell lines", "conditions": "single agent, concentrations typically in this range, read-out: antineoplastic activity (IC50)"}}, "note": "pIC50: −log10 of the molar value."}
{"compound": "CC1(C)CCC2=C(O1)c1ccccc1C(=O)C2=O", "note": "[β-lapachone, 3,4-dihydro-2,2-dimethyl-2H-naphtho[1,2-b]pyran-5,6-dione]", "values": [{"measurement": "cytotoxic effects", "setting": "[1]", "value": "No cytotoxic effects"}, {"measurement": "pIC50", "setting": "human cancer cell lines", "value": "5.00 to 6.00"}]}
